# Reference: patent US9045390B2, “Haloalkylmethyleneoxyphenyl-substituted ketoenols” (Bayer CropScience AG, priority 2009, dated 2015)
# Like-named read-outs stand apart in the source and are kept apart here.
# Tests used:
# [1] = tested on: cereals; assay: Container trials with cereals in a greenhouse, mefenpyr 1 day before herbicide application; format: in vivo
# Method: (§1) Seeds of monocotyledonous and dicotyledonous weed and crop plants are placed in sandy loam in wood fibre pots, covered with soil and cultivated in a greenhouse under good growth conditions. Two to three weeks after sowing, the test plants are treated at the one-leaf stage. The test compounds, formulated as wettable powders (WP), are sprayed onto the green parts of the plants in different dosages with a water application rate of 600 l/ha (converted), with 0.2% added wetting agent. After the test plants have been kept in the greenhouse under optimal growth conditions for about three weeks, the effect of the preparations is assessed visually by comparison to untreated controls (herbicidal effect in per cent: 100% effect=the plants have died, 0% effect=like control plants).
# (§2) If there is to be an additional test as to whether safeners can improve the plant compatibility of test substances in the case of crop plants, the following options are used for applying the safeners: • Seeds of the crop plants are, before sowing, dressed with safener substance (the amount of safener stated in per cent, based on the weight of the seed) • Before the application of the test substances, the crop plants are sprayed with the safener at a certain application rate per hectare (usually one day before the application of the test substances) • The safener is applied together with the test substance as a tankmix (the amount of safener is stated in g/ha or as a ratio, based on the herbicide).
# Container Trials with Cereals in a Greenhouse
# Mefenpyr 1 Day Before Herbicide Application
# [2] = log P determination by HPLC/LC-MS on reversed-phase column (C 18); format: physicochemical; conditions: pH 2.7, 0.1% aqueous formic acid and acetonitrile; for chromatographic logP: reversed-phase column (C 18), pH 2.7, LC-MS acidic range, read-out: log P (HCOOH)
# Method: The log P values reported in the above tables and preparation examples are determined according to EEC Directive 79/831 Annex V.A8 by HPLC (High Performance Liquid Chromatography) on a reversed-phase column (C 18). Temperature: 43° C.
# The determination is effected in the acidic range at pH 2.3 with 0.1% aqueous phosphoric acid and acetonitrile as eluent; linear gradient from 10% acetonitrile to 95% acetonitrile.
# The determination by LC-MS in the acidic range is effected at pH 2.7 with 0.1% aqueous formic acid and acetonitrile (contains 0.1% formic acid) as the eluent; linear gradient from 10% acetonitrile to 95% acetonitrile.
# The determination by LC-MS in the neutral range is effected at pH 7.8 with 0.001 molar aqueous ammonium hydrogen carbonate solution and acetonitrile as the eluent; linear gradient from 10% acetonitrile to 95% acetonitrile.
# The calibration is effected with unbranched alkane-2-ones (with 3 to 16 carbon atoms), the log P values of which are known (determination of log P values on the basis of the retention times by linear interpolation between two successive alkanones).
# [3] = tested on: green peach aphid (Myzus persicae); assay: Myzus test (MYZUPE spray treatment); format: in vivo; conditions: application rate 20 g/ha, Chinese cabbage leaf discs
# Method: Myzus Test (MYZUPE Spray Treatment)
# To prepare an appropriate active ingredient preparation, 1 part by weight of active ingredient is mixed with the stated amounts of solvent and emulsifier, and the concentrate is diluted with emulsifier-containing water to the desired concentration.
# Discs of Chinese cabbage (Brassica pekinensis) infected by all stages of the green peach aphid (Myzus persicae) are sprayed with an active ingredient preparation of the desired concentration.
# After the desired time, the effect in % is determined. 100% means that all of the aphids have been killed; 0% means that none of the aphids have been killed.
# [4] = tested on: Maize (Arsenal); assay: Container tests with maize-soya-cotton in a greenhouse, cyprosulfamide 1 day before herbicide application; format: in vivo
# Method: as §1, §2
# (§3) Container Tests with Maize-Soya-Cotton in a Greenhouse
# (§4) Cyprosulfamide 1 Day Before Herbicide Application
# [5] = tested on: Maize (Cecilia); format: in vivo
# Method: as §1, §2, §3, §4
# [6] = tested on: cotton aphid (Aphis gossypii); assay: Aphis gossypii test (with ammonium salts and penetration enhancers); format: in vivo; conditions: for Kill rate/% after 6 days: active ingredient alone, cotton plants
# Method: Aphis gossypsi Test [table] To prepare an appropriate active ingredient preparation, 1 part by weight of active ingredient is mixed with the stated amounts of solvent and emulsifier, and the concentrate is diluted to the desired concentration with emulsifier-containing water. […] Cotton plants (Gossypium hirsutum) heavily infested by the cotton aphid (Aphis gossypii) are treated by spraying to runoff point with the active ingredient preparation of the desired concentration.
# [7] = tested on: Maize (Aventura); assay: Container tests with maize-soya-cotton in a greenhouse, cyprosulfamide 1 day before herbicide application; format: in vivo
# Method: as §1, §2, §3, §4
# [8] = tested on: cereals; assay: Container trials with cereals in a greenhouse, mefenpyr 1 day before herbicide application; format: in vivo; conditions: 10 days after application, 12.5 g a.i./ha
# [9] = tested on: green peach aphid (Myzus persicae); assay: Enhancement of activity by ammonium/phosphonium salts with penetration enhancers: Myzus persicae test; format: in vivo; conditions: 0.8 ppm
# Method: Enhancement of Activity by Ammonium/Phosphonium Salts in Combination with Penetration Enhancers Myzus persicae Test [table] To prepare an appropriate active ingredient preparation, 1 part by weight of active ingredient is mixed with the stated amount of solvent and emulsifier, and the concentrate is diluted to the desired concentration with water. […] Bell pepper plants (Capsicum annuum) heavily infested by the green peach aphid (Myzus persicae) are treated by spraying to runoff point with the active ingredient preparation of the desired concentration.
# [10] = 28 days after application, 12.5 g a.i./ha
# [11] = 28 days after application, 25 g a.i./ha
# [12] = Summer barley, 28 days after application, 12.5 g a.i./ha
# [13] = Summer barley, 28 days after application, 25 g a.i./ha
# [14] = Summer barley, 28 days after application, 50 g a.i./ha
# [15] = 28 days after application, 50 g a.i./ha
# [16] = 28 days after application, 100 g a.i./ha
compound,measurement,setting,value
CO[C@H]1CC[C@]2(CC1)NC(=O)C(c1c(C)cc(OCC(F)(F)F)cc1C)=C2OC(=O)C(C)C [Example I-1-b-2],Summer barley observed (%),[1]; in vivo,50%
CCc1cc(OCC(F)(F)F)cc(C)c1C1=C(O)C2(CCC3(CC2)OCCO3)NC1=O [Example I-1-a-6],Summer wheat observed (%),[1]; [10],70%
same,Summer wheat observed (%),[1]; [11],85%
CCCCOC1CCCC2(C1)NC(=O)C(c1c(C)cc(OCC(F)(F)F)cc1CC)=C2O (stereo not shown) [Example I-1-a-15],Summer barley observed (%),[1]; [12],70%
same,Summer barley observed (%),[1]; [13],85%
same,Summer barley observed (%),[1]; [14],97%
same,Summer wheat observed (%),[1]; [10],10%
same,Summer wheat observed (%),[1]; [11],30%
same,Summer wheat observed (%),[1]; [15],40%
same,Summer wheat observed (%),[1]; [16],60%
CCOC(=O)C1(OC(=O)Cc2c(C)cc(OCC(F)(F)F)cc2C)CCOCC1 [III-1],chromatographic logP,[2],3.78
Cc1cc(OCC(F)(F)F)cc(C)c1C1=C(O)C2CCCCN2C1=O (stereo not shown) [Example I-1-a-20],effect in % (aphids killed),[3],≥ 80%
CCOC(=O)OC1=C(c2c(C)cc(OCC(F)(F)F)cc2C)C(=O)NC12CCCC(OCC)C2 (stereo not shown) [Example I-1-c-2],28 days after application Maize (Arsenal) observed (%),[4]; 25 g a.i./ha,20%
same,28 days after application Maize (Arsenal) observed (%),[4]; 50 g a.i./ha,20%
same,28 days after application Maize (Arsenal) observed (%),[4]; 100 g a.i./ha,25%
same,28 days after application Maize (Cecilia) observed (%),[5]; 100 g a.i./ha,75%
CCCOC1CCCC2(C1)NC(=O)C(c1c(C)cc(OCC(F)(F)F)cc1CC)=C2O (stereo not shown) [Example I-1-a-14],Summer wheat observed (%),[1]; [10],93%
same,Summer wheat observed (%),[1]; [11],99%
same,Summer wheat observed (%),[1]; [15],100%
CCc1cc(OCC(F)(F)F)cc(C)c1C1=C(O)C2(CCC3(CC2)OCC(C)O3)NC1=O (stereo not shown) [Example I-1-a-7],Summer wheat observed (%),[1]; [10],50%
same,Summer wheat observed (%),[1]; [11],50%
same,Summer wheat observed (%),[1]; [15],70%
same,Summer wheat observed (%),[1]; [16],70%
COC1CCC2(CC1)NC(=O)C(c1c(C)ccc(OCC(F)(F)F)c1C)=C2O (stereo not shown) [Example I-1-a-29],Kill rate/% after 6 days +AS (1000 ppm),[6]; 4 ppm,15%
same,Kill rate/% after 6 days +RME (1000 ppm),[6]; 4 ppm,80%
same,Kill rate/% after 6 days +RME +AS (1000 ppm each),[6]; 4 ppm,95%
same,Kill rate/% after 6 days,[6]; 4 ppm,10%
CCOC1CCCC2(CC1)NC(=O)C(c1c(C)cc(OCC(F)(F)F)cc1CC)=C2O (stereo not shown) [Example I-1-a-5],Summer barley observed (%),[1]; [12],65%
same,Summer barley observed (%),[1]; [13],95%
same,Summer wheat observed (%),[1]; [10],65%
Cc1ccc(OCC(F)(F)F)cc1C1=C(O)C2(CCCC2)OC1=O [Example I-2-a-1],log P (HCOOH),[2]; LC-MS acidic range,2.45
same,chromatographic logP,[2],2.59
CCc1cc(OCC(F)(F)F)cc(C)c1C1=C(O)C2(CCC(C)CC2)NC1=O (stereo not shown) [Example I-1-a-8],Summer wheat observed (%),[1]; [10],98%
same,28 days after application Maize (Aventura) observed (%),[7]; 12.5 g a.i./ha,35%
same,28 days after application Maize (Aventura) observed (%),[7]; 25 g a.i./ha,60%
same,28 days after application Maize (Aventura) observed (%),[7]; 50 g a.i./ha,70%
same,Summer wheat observed (%),[8],65%
Cc1ccc(OCC(F)(F)F)cc1C1=C(OC(=O)C(C)(C)C)C2(CCCC2)OC1=O [Example I-2-b-1],chromatographic logP,[2],4.69
CCc1cc(OCC(F)(F)F)cc(C)c1C1=C(O)C2(CCC(C)(OC)CC2)NC1=O (stereo not shown) [Example I-1-a-37],Summer wheat observed (%),[1]; [10],70%
"Cc1cc(OCC(F)(F)F)cc(C)c1CC(=O)O [XXXI-1, 2,6-Dimethyl-4-trifluoroethoxyphenylacetic acid]",chromatographic logP,[2],2.51
Cc1ccc(OCC(F)(F)F)c(C)c1C1=C(O)C2(CCOCC2)NC1=O [Example I-1-a-31],Kill rate/% after 6 days +AS (1000 ppm),[6]; 4 ppm,10%
same,Kill rate/% after 6 days +RME (1000 ppm),[6]; 4 ppm,5%
same,Kill rate/% after 6 days +RME +AS (1000 ppm each),[6]; 4 ppm,35%
same,Kill rate/% after 6 days,[6]; 4 ppm,0%
CCCOC1CCCC2(C1)NC(=O)C(c1c(C)cc(OCC(F)(F)F)cc1C)=C2O (stereo not shown) [Example I-1-a-19],Summer barley observed (%),[1]; [13],70%
same,Summer wheat observed (%),[1]; [10],10%
same,Summer wheat observed (%),[1]; [11],20%
same,Summer wheat observed (%),[1]; [15],70%
same,Summer wheat observed (%),[1]; [16],85%
COCC1CCC2(CC1)NC(=O)C(c1c(C)cc(OCC(F)(F)F)cc1C)=C2O (stereo not shown) [Example I-1-a-17],Summer barley observed (%),[1]; [14],40%
same,Summer barley observed (%),"[1]; Summer barley, 28 days after application, 100 g a.i./ha",80%
same,Summer barley observed (%),"[1]; Summer barley, 28 days after application, 200 g a.i./ha",95%
COC1CCC2(CC1)NC(=O)C(c1c(C)cc(OCC(F)(F)F)cc1C)=C2O (stereo not shown) [Example I-1-a-25],Kill rate/% after 6 days +AS (1000 ppm),[9]; +AS (1000 ppm),0%
same,Kill rate/% after 6 days +RME (1000 ppm),[9]; +RME (1000 ppm),40%
same,Kill rate/% after 6 days +RME +AS (1000 ppm each),[9]; +RME +AS (1000 ppm each),55%
same,Kill rate/% after 6 days,"[9]; active ingredient alone, bell pepper plants",0%
same,Kill rate/% after 6 days +AS (1000 ppm),[6]; 0.8 ppm,35%
same,Kill rate/% after 6 days +RME (1000 ppm),[6]; 0.8 ppm,20%
same,Kill rate/% after 6 days +RME +AS (1000 ppm each),[6]; 0.8 ppm,85%
same,Kill rate/% after 6 days,[6]; 0.8 ppm,0%
same,Summer wheat observed (%),[1]; [10],70%
same,28 days after application Maize (Arsenal) observed (%),[4]; 12.5 g a.i./ha,5%
same,28 days after application Maize (Arsenal) observed (%),[4]; 25 g a.i./ha,15%
same,28 days after application Maize (Arsenal) observed (%),[4]; 50 g a.i./ha,75%
same,28 days after application Maize (Arsenal) observed (%),[4]; 100 g a.i./ha,100%
same,28 days after application Maize (Cecilia) observed (%),[5]; 12.5 g a.i./ha,0%
same,28 days after application Maize (Cecilia) observed (%),[5]; 25 g a.i./ha,10%
same,28 days after application Maize (Cecilia) observed (%),[5]; 50 g a.i./ha,20%
same,28 days after application Maize (Cecilia) observed (%),[5]; 100 g a.i./ha,35%
same,Summer wheat observed (%),[8],40%
